Measured values published in article PMC5218480 (PLoS ONE, 2017).

System: MV-4-11 cells
Test: Gene expression microarray analysis (Affymetrix PrimeView) and GSEA
Assay type: cell-based, human
Parameters: RFU PODN (11730768_x_at) / Fold change /veh PODN (11730768_x_at) / RFU LINC00158 (11744669_a_at) / Fold change /veh LINC00158 (11744669_a_at) / RFU DUSP10 (11751237_a_at) / Fold change /veh DUSP10 (11751237_a_at) / RFU ID3 (11757404_x_at) / Fold change /veh ID3 (11757404_x_at) / RFU PLEKHG5 (11737974_s_at) / Fold change /veh PLEKHG5 (11737974_s_at) / RFU LRRC4B (11730491_at) / Fold change /veh LRRC4B (11730491_at) / RFU GIMAP4 (11747438_a_at) / Fold change /veh GIMAP4 (11747438_a_at) / RFU KRT8 (11758183_x_at) / Fold change /veh KRT8 (11758183_x_at) / RFU CNN1 (11734310_a_at) / Fold change /veh CNN1 (11734310_a_at) / RFU VPS37D (11726825_at) / Fold change /veh VPS37D (11726825_at) / RFU C10orf10 (11716522_x_at) / Fold change /veh C10orf10 (11716522_x_at) / RFU KIR2DL2 /// KIR2DL4 /// KIR2DL5A /// KIR2DL5B /// KIR2DS1 /// KIR2DS2 /// KIR2DS3 /// KIR2DS4 /// KIR3DL3 /// KIR3DL3 /// KIR3DS1 (11738374_at) / Fold change /veh KIR2DL2 /// KIR2DL4 /// KIR2DL5A /// KIR2DL5B /// KIR2DS1 /// KIR2DS2 /// KIR2DS3 /// KIR2DS4 /// KIR3DL3 /// KIR3DL3 /// KIR3DS1 (11738374_at) / RFU C1QL1 (11718748_at) / Fold change /veh C1QL1 (11718748_at) / RFU TMPRSS4 (11747572_a_at) / Fold change /veh TMPRSS4 (11747572_a_at) / RFU HAMP (11756126_x_at) / Fold change /veh HAMP (11756126_x_at) / RFU RNFT2 (11725882_a_at) / Fold change /veh RNFT2 (11725882_a_at) / RFU NR4A2 (11747474_a_at) / Fold change /veh NR4A2 (11747474_a_at) / RFU ABCC12 (11746883_a_at) / Fold change /veh ABCC12 (11746883_a_at) / RFU TMEM136 (11760407_x_at) / Fold change /veh TMEM136 (11760407_x_at) / RFU CLDN22 /// WWC2 (11732394_at) / Fold change /veh CLDN22 /// WWC2 (11732394_at) / RFU HLA-DPB1 (11760878_x_at) / Fold change /veh HLA-DPB1 (11760878_x_at) / RFU SPINT1 (11716480_a_at) / Fold change /veh SPINT1 (11716480_a_at) / RFU GAP43 (11754022_s_at) / Fold change /veh GAP43 (11754022_s_at) / RFU A4GNT (11735810_at) / Fold change /veh A4GNT (11735810_at) / RFU PRB3 (11715151_x_at) / Fold change /veh PRB3 (11715151_x_at) / RFU TUBB4B (11761932_at) / Fold change /veh TUBB4B (11761932_at) / RFU CAPN14 (11732068_a_at) / Fold change /veh CAPN14 (11732068_a_at) / RFU TMCC2 (11721928_a_at) / Fold change /veh TMCC2 (11721928_a_at) / RFU IRGQ (11745062_a_at) / Fold change /veh IRGQ (11745062_a_at) / RFU FAM174B (11720279_a_at) / Fold change /veh FAM174B (11720279_a_at) / RFU TMPRSS4 (11748680_a_at) / Fold change /veh TMPRSS4 (11748680_a_at) / RFU FAM212B (11763350_a_at) / Fold change /veh FAM212B (11763350_a_at) / RFU PLEKHG5 (11743358_a_at) / Fold change /veh PLEKHG5 (11743358_a_at) / RFU ZSCAN30 (11745921_a_at) / Fold change /veh ZSCAN30 (11745921_a_at) / RFU CMKLR1 (11741424_a_at) / Fold change /veh CMKLR1 (11741424_a_at) / RFU LOC101060620 /// MAPK8IP1 (11723275_at) / Fold change /veh LOC101060620 /// MAPK8IP1 (11723275_at) / RFU SPTSSB (11747773_x_at) / Fold change /veh SPTSSB (11747773_x_at) / RFU PRSS12 (11739890_at) / Fold change /veh PRSS12 (11739890_at) / RFU BIN1 (11741810_x_at) / Fold change /veh BIN1 (11741810_x_at) / RFU WNT11 (11732464_a_at) / Fold change /veh WNT11 (11732464_a_at) / RFU C10orf10 (11716521_a_at) / Fold change /veh C10orf10 (11716521_a_at) / RFU C5orf56 (11738089_at) / Fold change /veh C5orf56 (11738089_at) / RFU CYB561 (11721691_x_at) / Fold change /veh CYB561 (11721691_x_at) / RFU ANKRD19P (11752326_a_at) / Fold change /veh ANKRD19P (11752326_a_at) / RFU OR2T12 /// OR2T33 /// OR2T8 (11738714_s_at) / Fold change /veh OR2T12 /// OR2T33 /// OR2T8 (11738714_s_at) / RFU VCAN (11748164_a_at) / Fold change /veh VCAN (11748164_a_at) / RFU JSRP1 (11732532_at) / Fold change /veh JSRP1 (11732532_at) / RFU KRTAP10-11 (11738290_x_at) / Fold change /veh KRTAP10-11 (11738290_x_at) / RFU MYO3A (11730013_a_at) / Fold change /veh MYO3A (11730013_a_at) / RFU EBF3 (11725865_a_at) / Fold change /veh EBF3 (11725865_a_at) / RFU CAMK2N1 (11719241_x_at) / Fold change /veh CAMK2N1 (11719241_x_at) / RFU C5orf56 (11738088_a_at) / Fold change /veh C5orf56 (11738088_a_at) / RFU OLFML3 (11715873_a_at) / Fold change /veh OLFML3 (11715873_a_at) / RFU LOC100653217 /// NTM (11731650_a_at) / Fold change /veh LOC100653217 /// NTM (11731650_a_at) / RFU MAPK11 (11762145_a_at) / Fold change /veh MAPK11 (11762145_a_at) / RFU FIZ1 (11724087_x_at) / Fold change /veh FIZ1 (11724087_x_at) / RFU OASL (11726364_x_at) / Fold change /veh OASL (11726364_x_at) / RFU SOX15 (11748057_x_at) / Fold change /veh SOX15 (11748057_x_at) / RFU CD79A (11719716_a_at) / Fold change /veh CD79A (11719716_a_at) / RFU HIST1H1D (11736915_at) / Fold change /veh HIST1H1D (11736915_at) / RFU CASKIN2 (11723855_a_at) / Fold change /veh CASKIN2 (11723855_a_at) / RFU LOC730098 (11760151_x_at) / Fold change /veh LOC730098 (11760151_x_at) / RFU OR4N2 (11742367_at) / Fold change /veh OR4N2 (11742367_at) / RFU PRRT2 (11749266_a_at) / Fold change /veh PRRT2 (11749266_a_at) / RFU SNX32 (11753110_a_at) / Fold change /veh SNX32 (11753110_a_at) / RFU CDHR5 (11726645_a_at) / Fold change /veh CDHR5 (11726645_a_at) / RFU RCAN1 (11760418_a_at) / Fold change /veh RCAN1 (11760418_a_at) / RFU FAM167A (11723789_a_at) / Fold change /veh FAM167A (11723789_a_at) / RFU FAM26E (11764081_at) / Fold change /veh FAM26E (11764081_at) / RFU ISYNA1 (11749810_s_at) / Fold change /veh ISYNA1 (11749810_s_at) / RFU ACY1 (11761880_at) / Fold change /veh ACY1 (11761880_at) / RFU 11764098_at / Fold change /veh 11764098_at / RFU SAMD14 (11745864_x_at) / Fold change /veh SAMD14 (11745864_x_at) / RFU NPB (11741838_a_at) / Fold change /veh NPB (11741838_a_at) / RFU TMPRSS6 (11731388_a_at) / Fold change /veh TMPRSS6 (11731388_a_at) / RFU KRTAP10-2 (11738614_at) / Fold change /veh KRTAP10-2 (11738614_at) / RFU ARHGAP8 /// PRR5-ARHGAP8 (11727945_x_at) / Fold change /veh ARHGAP8 /// PRR5-ARHGAP8 (11727945_x_at) / RFU KRTAP5-7 /// NADSYN1 (11734609_at) / Fold change /veh KRTAP5-7 /// NADSYN1 (11734609_at) / RFU RASL12 (11751679_a_at) / Fold change /veh RASL12 (11751679_a_at) / RFU CDKN2B (11736163_a_at) / Fold change /veh CDKN2B (11736163_a_at) / RFU PRF1 (11729649_at) / Fold change /veh PRF1 (11729649_at) / RFU, ZNF638 /// ZNF638-IT1 / Fold change vs veh, ZNF638 /// ZNF638-IT1 / RFU, PANK3 / Fold change vs veh, PANK3 / RFU, SH3YL1 / Fold change vs veh, SH3YL1 / RFU, ZEB2 / Fold change vs veh, ZEB2 / RFU, NRIP1 / Fold change vs veh, NRIP1 / RFU, PTTG1IP / Fold change vs veh, PTTG1IP / RFU, CAPN2 / Fold change vs veh, CAPN2 / RFU, MED14 / Fold change vs veh, MED14 / RFU, SNORA58 / Fold change vs veh, SNORA58 / RFU, C1orf63 / Fold change vs veh, C1orf63 / RFU, LRRFIP1 / Fold change vs veh, LRRFIP1 / RFU, NDUFAF7 / Fold change vs veh, NDUFAF7 / RFU, SLC12A2 / Fold change vs veh, SLC12A2 / RFU, IBTK / Fold change vs veh, IBTK / RFU, ESF1 / Fold change vs veh, ESF1 / Fold change vs veh, TMEM50B / RFU, TAOK1 / Fold change vs veh, TAOK1 / RFU, ACBD3 / Fold change vs veh, ACBD3 / RFU, TMA16 / Fold change vs veh, TMA16 / RFU, RWDD3 / Fold change vs veh, RWDD3 / RFU, BCAT1 / Fold change vs veh, BCAT1 / RFU, EDEM3 / Fold change vs veh, EDEM3 / RFU, TMEM33 / Fold change vs veh, TMEM33 / RFU, WDR75 / Fold change vs veh, WDR75 / RFU, AHCTF1 / Fold change vs veh, AHCTF1 / RFU, TFRC / Fold change vs veh, TFRC / RFU, ZDHHC17 / Fold change vs veh, ZDHHC17 / RFU, NOM1 / Fold change vs veh, NOM1 / RFU, ARL8B / Fold change vs veh, ARL8B / RFU, ZBTB11 / Fold change vs veh, ZBTB11 / RFU, TAMM41 / Fold change vs veh, TAMM41 / RFU, KIAA1704 /// LOC100996395 / Fold change vs veh, KIAA1704 /// LOC100996395 / RFU, ING1 / Fold change vs veh, ING1 / RFU, TRMT61B / Fold change vs veh, TRMT61B / RFU, FUBP3 / Fold change vs veh, FUBP3 / RFU, TP53 / Fold change vs veh, TP53 / RFU, TNKS2 / Fold change vs veh, TNKS2 / RFU, ZFP14 / Fold change vs veh, ZFP14 / RFU, ACTR2 / Fold change vs veh, ACTR2 / RFU, PPP3R1 / Fold change vs veh, PPP3R1 / RFU, PIK3R1 / Fold change vs veh, PIK3R1 / RFU, HNRNPA1 / Fold change vs veh, HNRNPA1 / RFU, RNF170 / Fold change vs veh, RNF170 / RFU, ZNF28 / Fold change vs veh, ZNF28 / RFU, RNGTT / Fold change vs veh, RNGTT / RFU, OGT / Fold change vs veh, OGT / RFU, BRD1 / Fold change vs veh, BRD1 / RFU, MARS / Fold change vs veh, MARS / RFU, ZNF655 / Fold change vs veh, ZNF655 / RFU, FAHD1 / Fold change vs veh, FAHD1 / RFU, BDP1 / Fold change vs veh, BDP1 / RFU, LRRCC1 / Fold change vs veh, LRRCC1 / RFU, ARID1A / Fold change vs veh, ARID1A / RFU, ZNF146 / Fold change vs veh, ZNF146 / RFU, ZNF330 / Fold change vs veh, ZNF330 / RFU, GPN3 / Fold change vs veh, GPN3 / RFU, C9orf123 / Fold change vs veh, C9orf123 / RFU, N4BP2L2 / Fold change vs veh, N4BP2L2 / RFU, ARFIP1 / Fold change vs veh, ARFIP1 / RFU, FAM179B / Fold change vs veh, FAM179B / RFU, BCL10 / Fold change vs veh, BCL10 / RFU, UHRF1BP1L / Fold change vs veh, UHRF1BP1L / RFU, BET1 / Fold change vs veh, BET1 / RFU, CNOT2 / Fold change vs veh, CNOT2 / RFU, ZNF268 / Fold change vs veh, ZNF268 / Fold change vs veh, ZNF507 / RFU, DGCR2 / Fold change vs veh, DGCR2 / RFU, WDSUB1 / Fold change vs veh, WDSUB1 / Fold change vs veh, HSP90B1 /// MIR3652 / RFU, ADSS / Fold change vs veh, ADSS / RFU, GK / Fold change vs veh, GK / RFU, ZNF148 / Fold change vs veh, ZNF148 / RFU, TAF9 / Fold change vs veh, TAF9 / RFU, SLC1A5 / Fold change vs veh, SLC1A5 / RFU, SLMO2 / Fold change vs veh, SLMO2 / RFU, ABCC4 / Fold change vs veh, ABCC4 / RFU, LOC101060439 /// RAP1B / Fold change vs veh, LOC101060439 /// RAP1B / RFU, RFX7 / Fold change vs veh, RFX7 / RFU, GTPBP10 / Fold change vs veh, GTPBP10 / RFU, CNEP1R1 / Fold change vs veh, CNEP1R1 / RFU, BIVM-ERCC5 /// ERCC5 / Fold change vs veh, BIVM-ERCC5 /// ERCC5 / RFU, ILF3 / Fold change vs veh, ILF3 / RFU 11762660_at / Fold change /veh 11762660_at / RFU VCAN (11757783_s_at) / Fold change /veh VCAN (11757783_s_at) / RFU DDX43 (11728927_at) / Fold change /veh DDX43 (11728927_at) / RFU KRT8 (11758188_x_at) / Fold change /veh KRT8 (11758188_x_at) / RFU NKD1 (11759106_at) / Fold change /veh NKD1 (11759106_at) / RFU SRD5A1 (11742802_a_at) / Fold change /veh SRD5A1 (11742802_a_at) / RFU TPSAB1 /// TPSB2 (11721975_s_at) / Fold change /veh TPSAB1 /// TPSB2 (11721975_s_at) / RFU GSTM3 (11746129_a_at) / Fold change /veh GSTM3 (11746129_a_at) / RFU IL23R (11737362_x_at) / Fold change /veh IL23R (11737362_x_at) / RFU TMEM51 (11727254_a_at) / Fold change /veh TMEM51 (11727254_a_at) / RFU PIWIL2 (11732686_x_at) / Fold change /veh PIWIL2 (11732686_x_at) / RFU ORM1 (11744905_x_at) / Fold change /veh ORM1 (11744905_x_at) / RFU CCDC152 (11743942_at) / Fold change /veh CCDC152 (11743942_at) / RFU ECM1 (11717891_a_at) / Fold change /veh ECM1 (11717891_a_at) / RFU IL23R (11748794_a_at) / Fold change /veh IL23R (11748794_a_at) / RFU TNFAIP8L3 (11732012_x_at) / Fold change /veh TNFAIP8L3 (11732012_x_at) / RFU MBOAT4 (11741988_at) / Fold change /veh MBOAT4 (11741988_at) / RFU 11764193_at / Fold change /veh 11764193_at / RFU TMEM53 (11763286_at) / Fold change /veh TMEM53 (11763286_at) / RFU MAGEB2 (11727129_at) / Fold change /veh MAGEB2 (11727129_at) / RFU TMEM200A (11744735_a_at) / Fold change /veh TMEM200A (11744735_a_at) / RFU CCDC152 (11751479_a_at) / Fold change /veh CCDC152 (11751479_a_at) / RFU FAM211A (11726209_a_at) / Fold change /veh FAM211A (11726209_a_at) / RFU RGS16 (11746705_a_at) / Fold change /veh RGS16 (11746705_a_at) / RFU VCAN (11755009_s_at) / Fold change /veh VCAN (11755009_s_at) / RFU RHOB (11743442_s_at) / Fold change /veh RHOB (11743442_s_at) / RFU RGS16 (11720943_a_at) / Fold change /veh RGS16 (11720943_a_at) / RFU RGS16 (11720944_at) / Fold change /veh RGS16 (11720944_at) / RFU, VPS4B / Fold change vs veh, VPS4B / RFU, CREB1 / Fold change vs veh, CREB1 / RFU, DNAJC13 / Fold change vs veh, DNAJC13 / RFU, GNAQ / Fold change vs veh, GNAQ / RFU, CDK5R1 / Fold change vs veh, CDK5R1 / RFU, ZRANB3 / Fold change vs veh, ZRANB3 / RFU, CUL4A / Fold change vs veh, CUL4A / RFU, CCNY / Fold change vs veh, CCNY / RFU, UFL1 / Fold change vs veh, UFL1 / RFU, COG3 / Fold change vs veh, COG3 / RFU, DIAPH2 / Fold change vs veh, DIAPH2 / RFU, SKA2 / Fold change vs veh, SKA2 / RFU, AFF3 / Fold change vs veh, AFF3 / RFU, LMF1 / Fold change vs veh, LMF1 / RFU, IPO11 / Fold change vs veh, IPO11 / RFU, DFFB / Fold change vs veh, DFFB / RFU, FOXP1 / Fold change vs veh, FOXP1 / RFU, CARD8 / Fold change vs veh, CARD8 / RFU, STRN3 / Fold change vs veh, STRN3 / RFU, ADK / Fold change vs veh, ADK / RFU, RASSF2 / Fold change vs veh, RASSF2 / RFU, WIPF1 / Fold change vs veh, WIPF1 / RFU, LARP1B / Fold change vs veh, LARP1B / RFU, RASA1 / Fold change vs veh, RASA1 / RFU, RB1 / Fold change vs veh, RB1 / RFU, PPFIA1 / Fold change vs veh, PPFIA1 / RFU, MAT2A / Fold change vs veh, MAT2A / RFU, CCT5 / Fold change vs veh, CCT5 / RFU, WDR92 / Fold change vs veh, WDR92 / RFU, CUX1 / Fold change vs veh, CUX1 / RFU, TTC7A / Fold change vs veh, TTC7A / RFU, TMEM135 / Fold change vs veh, TMEM135 / RFU, DEPTOR / Fold change vs veh, DEPTOR / RFU, CPM / Fold change vs veh, CPM / RFU, DNAJB6 / Fold change vs veh, DNAJB6 / RFU, CACNA2D3 / Fold change vs veh, CACNA2D3 / RFU, DTX4 / Fold change vs veh, DTX4 / RFU, TFCP2 / Fold change vs veh, TFCP2 / RFU, GMCL1 /// GMCL1P1 / Fold change vs veh, GMCL1 /// GMCL1P1 / RFU, AEBP2 / Fold change vs veh, AEBP2 / RFU, SNHG1 /// SNORD22 /// SNORD25 /// SNORD26 /// SNORD27 /// SNORD28 /// SNORD29 /// SNORD31 / Fold change vs veh, SNHG1 /// SNORD22 /// SNORD25 /// SNORD26 /// SNORD27 /// SNORD28 /// SNORD29 /// SNORD31 / Fold change (Aza/veh), C12orf56 (ProbeSet 11735607_a_at) / Fold change (ACY-1035/veh), C12orf56 (ProbeSet 11735607_a_at) / Fold change (Aza/veh), FGFR1OP (ProbeSet 11751329_s_at) / Fold change (ACY-1035/veh), FGFR1OP (ProbeSet 11751329_s_at) / Fold change (Aza/veh), VPS36 (ProbeSet 11739960_a_at) / Fold change (ACY-1035/veh), VPS36 (ProbeSet 11739960_a_at) / RFU SYPL1 (11715823_x_at) / Fold change /veh SYPL1 (11715823_x_at) / RFU IGFBP7 (11715501_s_at) / Fold change /veh IGFBP7 (11715501_s_at) / RFU REEP3 (11722064_at) / Fold change /veh REEP3 (11722064_at) / RFU IGLL1 (11728026_x_at) / Fold change /veh IGLL1 (11728026_x_at): dose or concentration left out as unconfirmed
Conditions: ProbeSet 11758397_s_at; LIST B

`Nc1ccc(-c2cccs2)cc1NC(=O)c1ccc2c(c1)cc(C1CC1)n2CCN1CCOCC1` [ACY-1035] was tested, and the “RFU, RNF170” value was 143.47 RFU.
